Test results taken from patent US20250051729A1, “METHOD FOR PREPARING HIGHLY DIFFERENTIATED KIDNEY ORGANOIDS” (RGENORGANO BIOTECHNOLOGY CO., LTD., priority 2021, published 2025).
“Also recorded” adds a separate entry of the source.

How the values were obtained:
[1] = system: human iPSC-derived kidney organoids; test: Confocal imaging of PECAM1+ vasculature around NPHS1+ or WT1+ glomerular structure in kidney organoids; format: cell-based; conditions: Protocol B: VEGF (days 6, 9, 12, 14) and 10 μM Compound 1 (day 12) added together to Protocol A; FIG. 2A
Experimental: While Protocol B was largely similar to Protocol A, to enhance a vascular network, VEGF (10 ng/ml, 20 ng/ml, 30 ng/ml, and 50 ng/ml each) was treated on days 6, 9, 12, and 14, and to enhance podocyte differentiation, 10 μM Compound 1 was treated on day 12. For immunofluorescent analysis, organoids were fixed on day 18 unless otherwise noted. Specifically, for fixation, equal volumes of PBS (Thermo Fisher Scientific) and 8% paraformaldehyde (Electron Microscopy Sciences) were added to a medium for 15 minutes, and then the sample was washed with PBS three times. Subsequently, the fixed organoid culture was blocked with 5% donkey serum (Millipore)+0.3% Triton-X-100/PBS. Afterward, the blocked organoid culture was incubated in PBS containing 3% bovine serum albumin (Sigma)+ primary antibodies [anti-acetylated tubulin (Sigma-Aldrich T7451, 1:200), anti-collagen IV (Southern Biotech 1340-01, 1:300), anti-cytokeratin 8 (Abcam ab9023, 1:200), anti-GATA3 (R&D AF2605, 1:200), anti-Gb3 (TCI […], 1:200), anti-GLA (Thermo Fisher Scientific PA5-27349, 1:1000), anti-laminin (Sigma-Aldrich L9393. 1:200), anti-LTL (Vector Labs FL-1321, 1:200 dilution), […]32 (BD Pharmingen 555849, 1:200), anti-NPHS1 ([…] (Abcam ab9498, 1:200), anti-TUBA4A (Abcam ab24610, 1:200), and anti-WT1 (Abcam ab89901, 1:200)] overnight, washed, and then incubated with Alexa Fluor secondary antibodies (Invitrogen). […]

[2] = system: GLA mutant kidney organoids; test: Immunofluorescent staining of Gb3 (Gb3 positive area) in GLA mutant kidney organoids; format: cell-based, human; conditions: GLA mutant kidney organoids (Protocol B) after treatment with agalsidase-α (ERT); FIGS. 4D and 4E
Experimental: For immunofluorescent analysis, organoids were fixed on day 18 unless otherwise noted. Specifically, for fixation, equal volumes of PBS (Thermo Fisher Scientific) and 8% paraformaldehyde (Electron Microscopy Sciences) were added to a medium for 15 minutes, and then the sample was washed with PBS three times. Subsequently, the fixed organoid culture was blocked with 5% donkey serum (Millipore)+0.3% Triton-X-100/PBS. Afterward, the blocked organoid culture was incubated in PBS containing 3% bovine serum albumin (Sigma)+ primary antibodies [anti-acetylated tubulin (Sigma-Aldrich T7451, 1:200), anti-collagen IV (Southern Biotech 1340-01, 1:300), anti-cytokeratin 8 (Abcam ab9023, 1:200), anti-GATA3 (R&D AF2605, 1:200), anti-Gb3 (TCI A2506, 1:200), anti-GLA (Thermo Fisher Scientific PA5-27349, 1:1000), anti-laminin (Sigma-Aldrich L9393. 1:200), anti-LTL (Vector Labs FL-1321, 1:200 dilution), antiMECA32 (BD Pharmingen 555849, 1:200), anti-NPHS1 (R&D AF4269, 1:200), anti-Pecaml (Abcam ab9498, 1:200), anti-TUBA4A (Abcam ab24610, 1:200), and anti-WT1 (Abcam ab89901, 1:200)] overnight, washed, and then incubated with Alexa Fluor secondary antibodies (Invitrogen). Afterward, the resulting organoids were washed and stained with DAPI, or mounted using Vectashield H-1000. Images were obtained using a Zeiss LSM 700 confocal microscope (Carl Zeiss, Germany) and ZEN 3.1 software. […]

[3] = system: GLA mutant kidney organoids; test: Immunofluorescent staining of NPHS1, PECAM1 and LTL: vasculopathy phenotype in GLA mutant kidney organoids; format: cell-based, human; conditions: GLA mutant kidney organoids produced by Protocol B, ERT; FIG. 4F
Experimental: For immunofluorescent analysis, organoids were fixed on day 18 unless otherwise noted. Specifically, for fixation, equal volumes of PBS (Thermo Fisher Scientific) and 8% paraformaldehyde (Electron Microscopy Sciences) were added to a medium for 15 minutes, and then the sample was washed with PBS three times. Subsequently, the fixed organoid culture was blocked with 5% donkey serum (Millipore)+0.3% Triton-X-100/PBS. […]
Next, the phenotype of the vasculopathy in Fabry disease was determined using GLA mutant kidney organoids produced by Protocol B. Immunofluorescent staining analyses of NPHS1, PECAM1, and LTL were conducted on the wild type, GLA mutant kidney organoids, and human recombinant agalsidase-α-treated GLA mutant kidney organoids.

Molecule	vascularization surrounding the glomerular structure [1]	Gb3 accumulation [2]	vascular network (glomerular angiogenesis and formation of large lumen vessels) [3]
NC(=O)c1ccc(-c2nc(-c3ccc4c(c3)OCO4)c(-c3ccccn3)[nH]2)cc1 [Compound 1, 4-[4-(1,3-benzodioxol-5-yl)-5-pyridin-2-yl-1H-imidazol-2-yl]benzamide, reference compound]	significantly improved		
VEGF	significantly improved		
agalsidase-α: recombinant human agalsidase-α used as recombinant enzyme replacement therapy (ERT) (protein, UniProt P06280 32-429, looked up) Alpha-galactosidase A: LDNGLARTPTMGWLHWERFMCNLDCQEEPDSCISEKLFMEMAELMVSEGWKDAGYEYLCIDDCWMAPQRDSEGRLQADPQRFPHGIRQLANYVHSKGLKLGIYADVGNKTCAGFPGSFGYYDIDAQTFADWGVDLLKFDGCYCDSLENLADGYKHMSLALNRTGRSIVYSCEWPLYMWPFQKPNYTEIRQYCNHWRNFADIDDSWKSIKSILDWTSFNQERIVDVAGPGGWNDPDMLVIGNFGLSWNQQVTQMALWAIMAAPLFMSNDLRHISPQAKALLQDKDVIAINQDPLGKQGYQLRQGDNFEVWERPLSGLAWAVAMINRQEIGGPRSYTIAVASLGKGVACNPACFITQLLPVKRKLGFYEWTSRLRSHINPTGTVLLQLENTMQMSLKDLL		decreased	restored the vascular network; also recorded: restored a vascular network
